# Results as given in patent publication US12268707B2, “Treatment for coronavirus infection and associated cytokine toxicity” (priority 2020, dated 2025).
# Values joined by “and” are separate entries in the source; they are usually repeats but may differ in a detail not shown here. Equal entries are not always repeated.
# Experiments:
# [1] = tested on: SARS-CoV-2; type: cell-based
# [2] = fraction of heparin's anticoagulant properties; cited from earlier work
# [3] = high doses for extended periods; cited from earlier work
# [4] = administered orally, intravenously or subcutaneously; cited from earlier work
substance,measurement,setting,value
pentosan polysulfate [PPS],reduction in virus infectivity (TCID50/mL),[1],almost four orders of magnitude reduction
same,virus replication in Calu3 cells,[1],inhibited much more strongly
same,anticoagulant properties relative to heparin,[2],about 1/15 and 1/15
same,side effects,[3],only limited side effects
same,bioavailability,[4],bioavailable
